For data set [1], the target named is T1, CYP1B1 (Homo sapiens, UniProt Q16678).
T1 sequence (Q16678 1-543): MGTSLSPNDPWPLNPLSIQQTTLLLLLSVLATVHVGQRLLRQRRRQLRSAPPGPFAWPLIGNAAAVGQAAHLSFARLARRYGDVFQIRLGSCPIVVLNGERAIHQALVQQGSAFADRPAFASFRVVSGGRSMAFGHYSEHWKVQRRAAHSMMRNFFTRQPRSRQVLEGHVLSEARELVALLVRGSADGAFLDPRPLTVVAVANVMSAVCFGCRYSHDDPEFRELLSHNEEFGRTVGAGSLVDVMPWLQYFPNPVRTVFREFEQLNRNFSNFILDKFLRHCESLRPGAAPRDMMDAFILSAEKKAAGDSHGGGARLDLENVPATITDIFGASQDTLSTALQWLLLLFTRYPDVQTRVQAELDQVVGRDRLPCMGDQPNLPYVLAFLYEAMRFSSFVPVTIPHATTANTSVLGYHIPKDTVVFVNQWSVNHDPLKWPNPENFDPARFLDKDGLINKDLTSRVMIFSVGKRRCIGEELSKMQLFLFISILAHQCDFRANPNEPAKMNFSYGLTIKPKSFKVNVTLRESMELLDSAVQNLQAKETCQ
The data set is described as follows: Inhibition of EROD activity mediated by cDNA expressed cytochrome 1B1. To be noted: for pKi: Ki Values, Dixon re-plots of EROD activity, mean; for inhibition at 100 μM: human, pH 7.4. From the text:
Recent immunohistochemical analysis of P4501B1 protein in a variety of solid tumours identified tumour-specific enzyme expression (Murray et al, 1998). This provides a mechanism of resistance to currently used anticancer agents, as well as, an approach for targeted prodrug therapy. 7-ethoxyresorufin deethylase activity (EROD) was used to define interactions with cytochrome 1B1 (CYP1B1). 7-Ethoxyresorufin is a known substrate for P4501B1. […] For this purpose, inhibition constants (Ki) have been calculated using in vitro kinetics from CYP1B1-mediated EROD activity. EROD activity and assay has been described previously by various authors (Lubet et al., 1985, Arch. Biochem. Biophys. 238: pp 43-48; Gentest Corporation, 6 Henshaw St., Woburn, Mass. 01801 USA, data sheet given with CYP1B1, catalogue number P220). 7-Ethoxyresorufin is enzymatically deethylated to a product called resorufin. The appearance of resorufin was monitored by a fluorescence detector set at 550 nm and 582 nm (excitation and emission wavelengths). […] Incubations contained: phosphate buffer at pH 7.4, 7-ethoxyresorufin, CYP1B1 Supersomes from Gentest Co (catalogue number P220) and nicotine adenine dinucleotide phosphate (NADP) as cofactor.
The metabolism of anti-cancer drugs by CYP1B1 was studied using an inhibition of EROD assay. […] Ki values were determined by the Dixon's replots: see Table 2.

A further data set deals with V79MZ cells. The data set is described as follows: cells. The conditions noted are these: for pIC50: read-out: IC50 V79MZ (control vector). How it is done: (§1) A Chinese hamster […] fibroblast cell line (V79MZ) and a clone expressing human CYP1B1 (V79MZh1B1), were grown at 37° C., 5%CO2 and at 90% saturated humidity, in DMEM (Dulbecco's modified eagles medium) high glucose type supplemented with 1 mM sodium pyruvate, 10% fetal calf serum, 100 U penicillin/ml and 100 μg streptomycin/ml. Neither cell line expresses endogenous P450s, although cytochrome P450 reductase is present in both cell lines. The parental and CYP1B1 expressing cell lines double in cell number every 10-12 h and were sub-cultured at 1:50 ratio (i.e. 1 ml of cells to 50 ml of fresh media) every 4-5 days. The cells were not allowed to reach confluency at any time, to ensure optimal cell physiological conditions and maximal cytochrome P450 activity. Cells were routinely used at 3rd-5th passage for all experiments.
(§2) Docetaxel was obtained from Rhone-Poulenc Rorer. Optimal growth conditions were established. The same conditions were used for both cell lines; V79MZ and V79MZh1B1 cells at 60-80% confluence were harvested and seeded at 0.5-1×10^3 cells per well in 96 well culture plates. […] Cells treated with solvent alone acted as a negative control.
(§3) Enzyme inhibition studies were undertaken by co-administration of docetaxel and the known P450 CYP1 inhibitor ANF (Sigma) at different concentration in the media. Stock solutions of ANF (1 mM, 10 mM and 100 mM) were dissolved in DMSO and added to the media to give final concentrations of 1 μM, 10 μM and 100 μM ANF (in each case the final concentration of DMSO in media was 0.1%). Following 24 h exposure to each drug (with or without inhibitor), the media were removed and replaced with fresh media without drug. In this study, cells were then grown for three doubling times (36 h) with the media changed at 24 hr. […] Media were removed from the wells and replaced with 200 μl of fresh media, followed by addition of 50 μl of MTT solution (50 mg/ml of MTT (Sigma) in sterile PBS), the cells were incubated at 37° C. in a humidified atmosphere with 5%CO2/95% air for 4 h. The MTT containing media was then removed and 200 μl of DMSO plus 25 μl of glycine buffer (0.1 M glycine/0.1 M NaCl pH 10.5) added to the cells in each well. This procedure overcomes any effect that cell density or culture medium may have on the absorption spectrum. The absorbance of the formazan produced by the viable cells was measured once for each well at 540 nm on a Labsystems EMS microplate reader (Life Sciences International). To calculate the cell viability cells treated with solvent alone were assigned a value of 100% absorbance indicating zero cytotoxicity, i.e. 100% viability. The cytotoxic profile of each drug was evaluated in triplicate 96 well plates. Each plate included several controls (media only, cells only and cells treated with solvent alone). The 96 well plate format allowed eight concentrations of the appropriate drug per plate, with eight replicates (i.e. eight separate wells) per drug concentration, i.e. 8 measurements of absorbance for each concentration of drug per plate. There were three triplicate plates per experiment resulting in a total of 24 measurements of absorbance per concentration of drug.

The subject of the next data set is V79MZh1B1 cells. The data set is described as follows: in vitro. To be noted: for cytotoxicity in CYP1B1 expressing V79MZh1B1 cells: 24 h exposure, ANF at 1, 10 and 100 μM. How it is done: as §1, §2, §3
The nature of another data set: in vitro. To be noted: Chinese hamster. The procedure:
as §1, §2, §3

Data set [2] has as its system CYP1B1 in kidney tumour samples. The data set is described as follows: Kidney tumour assay, EROD metabolism with and without inhibitor. The format is biochemical. How it is done: The effect of a CYP1B1 inhibitor was confirmed in an assay using kidney tumour samples. A buffer and NADP regenerating system was allowed to equilibrate at 37° C. and EROD (5 μM final concentration) was then added. This was followed by the addition of either P450 supersomes (control) or the appropriate tumour sample (1 mg). Supersomes were incubated for 15 minutes and tumour samples for 40 minutes.

Data set [3] has as its target T1, CYP1B1. The data set is described as follows: Biotransformation studies with CYP1B1. To be noted: metabolites produced by CYP1B1 incubation but not control incubations.
For data set [4] the following is noted: fold less cytotoxic than paclitaxel; cited from earlier work.
Where [5] appears, read: Cricetulus griseus, V79MZ, 24 h.
The mark [6] stands for this setting: 24 h drug exposure, MTT, concentration at which 50% of cells are viable.

pIC50, pKi: −log10 of the molar value. “And” between values parts separate entries of the source, which are not always exact repeats. Equal entries are not always repeated. Where two headings read alike, the source gives them in different places.

Here are results for 14 molecules from patent US20030162727A1, “Use of cyp1b1inhibitors for treating cancer” (priority 2000, published 2003).

As to `O=P1(N(CCCl)CCCl)NCCCO1` (centres unmarked) [Cyclophosphamide], the “inhibition of CYP1B1 activity, initial screening, in words” value at CYP1B1 [1] (initial screening, 1 μM ethoxyresorufin, 100 μM agent) was “did not inhibit CYP1B1 activity”. Besides, the “cytotoxicity in parental V79MZ cells” value in the data set with V79MZ cells (24 h exposure, MTT, ANF at 1, 10 and 100 μM) is “No cytotoxicity”. For the same molecule, in the data set on V79MZh1B1 cells (MTT), the “cytotoxicity in CYP1B1 expressing V79MZh1B1 cells” value is listed as “No cytotoxicity”.

Take `O=c1[nH]cc(F)c(=O)[nH]1` [5-Fluorouracil]: the negative logarithm of the IC50 (pIC50) in the data set with V79MZ cells (setting [5]) is 4.15. Moreover, in the data set with V79MZh1B1 cells, the “difference in cytotoxicity between CYP1B1 expressing and non-expressing cells” value was “no significant difference”. In the data set “in vitro”, it took 80 µM to reach half-maximal inhibition (IC50 at 24 h).

As to `N.N.O=C([O-])C1(C(=O)[O-])CCC1.[Pt+2]` [Carboplatin], the pIC50 in the data set with V79MZ cells (setting [6]) is 4.10; in the data set on V79MZh1B1 cells (read-out: IC50 V79MZhB1, 24 h drug exposure, MTT, CYP1B1 expressing cells) it was 4.00. In addition, the “difference in cytotoxicity between CYP1B1 expressing and non-expressing cells” value in the data set with V79MZh1B1 cells (V79MZh1B1 compared with V79MZ, MTT) is listed as “no significant difference”.

For `N.N.[Cl][Pt][Cl]` [Cisplatin], the negative logarithm of the IC50 (pIC50) in the data set with V79MZ cells (setting [6]) was 5.36.

With `CC/C(=C(\c1ccccc1)c1ccc(OCCN(C)C)cc1)c1ccccc1` [Tamoxifen], the pKi at CYP1B1 [1] was 5.30.

`O=c1cc(-c2ccccc2)oc2c1ccc1ccccc12` [α-naphthoflavone]: the “CYP1B1 activity in metabolising EROD” value is 145 fmol/min/mg protein in data set [2] (kidney tumour Sample 1, plus 10 nM ANF (252 without)); 470 fmol/min/mg protein in data set [2] (kidney tumour Sample 2, plus 10 nM ANF (993 without)); 570 fmol/min/mg protein in data set [2] (kidney tumour Sample 3, plus 10 nM ANF (880 without)). In addition, in the data set with V79MZh1B1 cells (MTT), the “cytotoxicity in CYP1B1 expressing V79MZh1B1 cells” value is listed as “Neither cell line (parental or CYP1B1 expressing) showed cytotoxicity”.

Turning to `C[C@]12CC[C@H]3[C@@H](CCC4=CC(=O)CC[C@@]43C)[C@@H]1CC[C@@H]2O` [Testosterone], at CYP1B1 [1], the “Inhibition Type” value is listed as “competitive”.

As to `COc1cccc2c1C(=O)c1c(O)c3c(c(O)c1C2=O)C[C@@](O)(C(C)=O)C[C@@H]3O[C@H]1C[C@H](N)[C@H](O)[C@H](C)O1` [Daunomycin], at CYP1B1 [1], the pKi was 5.68 and 5.67; the inhibition at 100 μM fell in the range of 53 to 99%.

Consider `CC(=O)N1CCN(c2ccc(OCC3COC(Cn4ccnc4)(c4ccc(Cl)cc4Cl)O3)cc2)CC1` (centres unmarked) [Ketoconazole], for which, at CYP1B1 [1], the “Inhibition Type” value is “non-competitive”; the pKi is 6.52 and 6.57.

Turning to `C[C@]12CC[C@@H]3c4ccc(O)cc4CC[C@H]3[C@@H]1CC[C@@H]2O` [Estradiol], the “Inhibition Type” value at CYP1B1 [1] is “competitive”.

Turning to `CC(=O)O[C@@]12CO[C@@H]1C[C@H](O)[C@@]1(C)C(=O)[C@H](O)C3=C(C)[C@@H](OC(=O)[C@H](O)[C@@H](NC(=O)OC(C)(C)C)c4ccccc4)C[C@@](O)([C@@H](OC(=O)c4ccccc4)[C@H]21)C3(C)C` [Docetaxel], on CYP1B1 [1], the “Inhibition Type” value is reported as “competitive”, the negative-log Ki (pKi) is 4.55 and the inhibition at 100 μM is 53 to 99%. Also, the pIC50 in the data set with V79MZ cells (setting [5]) was 7.66. Besides, the “difference in cytotoxicity between CYP1B1 expressing and non-expressing cells” value with V79MZh1B1 cells is listed as “at least four-fold”. This molecule also returned an IC50 at 24 h in the data set “in vitro” of 0.1 µM.

At CYP1B1 [1], `COc1cccc2c1C(=O)c1c(O)c3c(c(O)c1C2=O)C[C@@](O)(C(=O)CO)C[C@@H]3O[C@H]1C[C@H](N)[C@H](O)[C@H](C)O1` [Doxorubicin] had a pKi of 5.59 and an inhibition at 100 μM of 53 to 99%. For the same molecule, the pIC50 in the data set on V79MZ cells (setting [5]) was 7.10. Besides, the “difference in cytotoxicity between CYP1B1 expressing and non-expressing cells” value in the data set with V79MZh1B1 cells is listed as “no significant difference”. In addition, the concentration for half-maximal inhibition (IC50) at 24 h in “in vitro” came out at 0.09 µM.

As for `CC(=O)O[C@H]1C(=O)[C@@]2(C)[C@H]([C@H](OC(=O)c3ccccc3)[C@]3(O)C[C@H](OC(=O)[C@H](O)[C@@H](NC(=O)c4ccccc4)c4ccccc4)C(C)=C1C3(C)C)[C@]1(OC(C)=O)CO[C@@H]1C[C@@H]2O` [Paclitaxel], at CYP1B1 [1], the pKi is 5.11 and the inhibition at 100 μM lay in the range of 53 to 99%. Also, in the data set on V79MZ cells (setting [5]), the pIC50 is 7.46. For the same molecule, in the data set on V79MZh1B1 cells, the “difference in cytotoxicity between CYP1B1 expressing and non-expressing cells” value is listed as “no significant difference”. In addition, the “biotransformation by CYP1B1” value on CYP1B1 [3] was “biotransformed by CYP1B1”.

As to `CC(=O)O[C@H]1C(=O)[C@@]2(C)[C@H]([C@H](OC(=O)c3ccccc3)[C@]3(O)C[C@H](OC(=O)[C@H](O)[C@@H](NC(=O)c4ccccc4)c4ccccc4)C(C)=C1C3(C)C)[C@]1(OC(C)=O)CO[C@@H]1[C@@H](O)[C@@H]2O` [6-hydroxytaxol], the “cytotoxicity relative to parent compound paclitaxel” value in data set [4] is on record as 30 fold.
